“Also recorded” adds a separate entry of the source.
Assays:
DncV = DncV (Vibrio cholerae serotype O1, UniProt Q9KVG7); assay: DncV-mediated CDN synthesis kinetics monitored by HPLC; assay type: biochemical; design: made in house; host or cells: Escherichia coli BL21(DE3); details: for k2 / k3 / k1: 500 μM NTP, DncV, 37° C., mean±SD; for k2: cyclization of intermediate to product; for k3: degradation of intermediate; for k1: first phosphodiester bond formation; for k1 derived from HPLC analysis: as quoted for comparison with kapp; for k2/k3: product formation vs intermediate degradation
Sequence of DncV (Q9KVG7 whole entry): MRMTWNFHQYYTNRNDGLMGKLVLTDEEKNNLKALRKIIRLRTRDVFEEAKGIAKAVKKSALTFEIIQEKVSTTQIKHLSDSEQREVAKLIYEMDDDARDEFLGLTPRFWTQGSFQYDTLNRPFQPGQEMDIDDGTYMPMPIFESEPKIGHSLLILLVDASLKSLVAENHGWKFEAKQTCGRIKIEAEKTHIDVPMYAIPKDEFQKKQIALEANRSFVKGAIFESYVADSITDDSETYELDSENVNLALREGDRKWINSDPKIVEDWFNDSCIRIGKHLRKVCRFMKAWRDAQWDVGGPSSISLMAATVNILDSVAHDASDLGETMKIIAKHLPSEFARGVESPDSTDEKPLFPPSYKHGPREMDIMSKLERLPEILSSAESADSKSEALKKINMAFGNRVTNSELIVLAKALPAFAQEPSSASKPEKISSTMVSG
Excerpt: DncV generates CDNs through a series of sequential reactions, which are thought to involve a release-and-rebound process of the intermediate. [7b,17] After the first 3′,5′-phosphodiester bond formation, the linear dinucleotide pppNpN is released and oppositely rebound to the enzyme, after which the second 3′,5′-phosphodiester linkage is made. [7b,16b,18] To ultimately apply and interpret real-time fluorescence measurements, a better understanding of the enzymatic conversion of GTP and its analogues into the corresponding CDNs is therefore required. The reaction time course was consequently analyzed, paying particular attention to the accumulation and consumption of intermediates. DncV was incubated with GTP, tzGTP and thGTP, and the reactions containing each of the corresponding substrates were quenched with calf intestinal alkaline phosphatase (CIAP) at designated time points. The relative concentrations of the starting material (S), uncyclized intermediate (I) and product (P) were then monitored by HPLC. […] Taking into account the unique release-and-rebound process of the uncyclized dinucleotide intermediate, [16b,20] the kinetics of the DncV-mediated CDN syntheses was therefore analyzed according to the model in Scheme 1a and the differential Equations (1)-(4), in which S represents the starting NTP, I1 and I2 respectively represent intermediates pppNpN and degraded intermediate pNpN (I=I1+I2), and P represents the product CDN. Papp (apparent product) stands for the sum of all the dinucleotide species, including linear ones and cyclized products.
Differential Equations (1)-(4) d[S]/dt=−2k1[S]^2 (1) d[I1]/dt=k1[S]^2−[…] (2) d[P]/dt=k2[I3] (3) d[I2]/dt=k3[I1] (4)
[…] of the mixture was subjected to HPLC analysis after filtration. The reaction mixture was separated by Sepax Bio C-18 column (250×10 mm, 5 pmparticle size) with a gradient of 0.5%-25% of 10 mM TEAA, pH7 in Me0H in 20 min at 25° C. on an Agilent 1200 series HPLC system (Agilent Technologies).
Data Analysis and curve fitting. […] The relative concentrations were plotted against time.

STING pathway = assay: IFN-β mRNA production in RAW 264.7 cells by RT-qPCR; assay type: cell-based, murine; details: for IFN-β mRNA production / IFN response: RAW 264.7, 1, 5, 10 μM CDN, 2, 4, 6 h; for order of IFN-β induction: RAW 264.7, RT-qPCR, FIG. 3; for time post transfection of highest IFN-β mRNA production: RAW 264.7, 1, 5 and 10 μM CDN, 2, 4 and 6 h tested
Procedure: FIGS. 3A-3C provide IFN data. […] RAW 264.7 cells were transfected with 1, 5, 10 μM of c-di-GMP, c-di-^tzGMP, c-G^thGMP, c-di-G^thGMP and c-G^tzGMP, and incubated for 2, 4, 6 h before being lysed by TRIzol. RNA purification and RT-qPCR were conducted following the protocol described in the Experimental Section. FIG. 3B show IFN response after 2, 4, 6 h of incubation with 5 μM of CDNs. […] Two independent assays were performed in triplicates (n=2). Error bars indicate SD. See Yi et al, Tuning the Innante Immune Response to Cyclic Dinucleotides by Using Atomic Mutagenesis, ChemBioChem, Volume 21 (2020).
As most synthetic c-di-GMP analogues activated IRF3, the inventors analyzed their dose and time dependency for inducing IFN-β mRNA production by using RT-qPCR. RAW 264.7 cells were transfected with 1, 5 and 10 μM of CDNs as described above and incubated for 2, 4 and 6 h. Total RNA was isolated and used for RT-qPCR. As shown in FIGS. 3A-3B, c-di-GMP induced the most IFN-β mRNA production 4 h post transfection, whereas the highest response was observed after 2 h for c-di-tzGMP, c-GthGMP, and c-GtzGMP.
RT-qPCR. RAW 264.7 cells were plated on 48-well plates (2.5×10^5 cells per well) and transfected with CDN using the same method as above after 48 h of incubation at 37° C. Cells were then incubate with regular growth medium for designated time, and total RNA was isolated with TRIzol® reagent and purified with RNeasy mini kit (Qiagen) following the manufacturer's protocol. Following elution, RNA yields were evaluated using a Nanodrop spectrophotometer (Nanodrop technologies). RNA samples were converted to cDNA with SuperScript III First-Strand Synthesis kit (Invitrogen) with random hexamers following the manufacturer's protocol. Quantitative PCR (SYBR Green) analysis was performed in duplicates on an Applied Biosystems 7300 Real-time PCR system (Invitrogen). Transcription level of IFN-β gene of each sample was normalized to housekeeping gene TBP and then to untreated samples (UT) using the delta-delta CT method.

## Nc1nc2c([C@@H]3O[C@@H]4COP(=O)(O)O[C@H]5[C@@H](O)[C@H](c6scc7c(=O)[nH]c(N)nc67)O[C@@H]5COP(=O)(O)O[C@H]4[C@H]3O)scc2c(=O)[nH]1 [c-di-^thGMP]
DncV
  k2: (2.32 ± 0.05) × 10^−4 s^−1
  k3: (2.91 ± 0.01) × 10^−5 s^−1
  k1: (3.08 ± 0.03) × 10^−7 μM^−1s^−1
  k1 derived from HPLC analysis: 0.31 ± 0.03 M⁻¹ s⁻¹
  k2/k3: 8.0
DncV; listed as c-di-thGMP
  k2: (2.32±0.05)×10^−3 s^−1
  k3: (2.91±0.01)×10^−5 s^−1
  k1: (3.08±0.03)×10^−7 μM^−1s^−1
STING pathway
  IFN-β mRNA production / IFN response: minimal; also recorded: essentially inactive
  order of IFN-β induction: c-GthGMP>c-di-tzGMP>c-GtzGMP>c-di-GMP>c-di-thGMP

## Nc1nc2c([C@@H]3O[C@@H]4COP(=O)(O)O[C@H]5[C@@H](O)[C@H](n6cnc7c(=O)[nH]c(N)nc76)O[C@@H]5COP(=O)(O)O[C@H]4[C@H]3O)scc2c(=O)[nH]1 [c-G^thGMP]
STING pathway; RAW 264.7, 5 μM CDN, 2 h incubation
  IFN-β mRNA production relative to c-di-GMP: tenfold higher
STING pathway
  IFN-β mRNA production / IFN response: highest potency; also recorded: earlier and stronger maximum IFN-β response compared to the native c-di-GMP; also recorded: strongest effect on IFN-β induction of all analogues tested; also recorded: faster and greater innate immune response relative to the native signal c-di-GMP
  time post transfection of highest IFN-β mRNA production: 2 h
  order of IFN-β induction: c-GthGMP>c-di-tzGMP>c-GtzGMP>c-di-GMP>c-di-thGMP

## Nc1nc2c([C@@H]3O[C@@H]4COP(=O)(O)O[C@H]5[C@@H](O)[C@H](c6snc7c(=O)[nH]c(N)nc67)O[C@@H]5COP(=O)(O)O[C@H]4[C@H]3O)snc2c(=O)[nH]1 [c-di-^tzGMP]
DncV
  k2: (3.4 ± 0.2) × 10^−3 s^−1
  k3: (1.3 ± 0.1) × 10^−4 s^−1
  k1: (1.26 ± 0.07) × 10^−6 μM^−1s^−1
  k1 derived from HPLC analysis: 1.26 ± 0.07 M⁻¹ s⁻¹
  k2/k3: 26
DncV; listed as c-di-tzGMP
  k2: (3.4±0.2)×10^−3 s^−1
  k3: (1.3±0.1)×10^−4 s^−1
  k1: (1.26±0.07)×10^−6 μM^−1s^−1
STING pathway
  IFN-β mRNA production / IFN response: earlier and stronger maximum IFN-β response compared to the native c-di-GMP
  time post transfection of highest IFN-β mRNA production: 2 h
  order of IFN-β induction: c-GthGMP>c-di-tzGMP>c-GtzGMP>c-di-GMP>c-di-thGMP

## Nc1nc2c(ncn2[C@@H]2O[C@@H]3COP(=O)(O)O[C@H]4[C@@H](O)[C@H](n5cnc6c(=O)[nH]c(N)nc65)O[C@@H]4COP(=O)(O)O[C@H]3[C@H]2O)c(=O)[nH]1 [c-di-GMP, reference compound]
DncV
  k2/k3: 116
STING pathway
  time post transfection of highest IFN-β mRNA production: 4 h
  order of IFN-β induction: c-GthGMP>c-di-tzGMP>c-GtzGMP>c-di-GMP>c-di-thGMP
